Earlier results, collected in patent US20260028295A1, “COMPOSITIONS THAT CONTAIN SUSPENDED DICYANDIAMIDE, AND RELATED METHODS” (Keystone Specialty Chemicals LLC, priority 2022, published 2026).

Settings: 25 degrees Celsius

solubility in water: 4.13 grams per 100 milliliter
SMILES: N#CNC(=N)N [Dicyandiamide]
